How the values were obtained:
Format in all cases: cell-based
Eurotium sp. (AAS 36) = experiment: Screening of fungi for enzyme activity with 4-methylumbelliferone-labelled substrates; settings: substrate 10 μM, 25° C., pH 5; for Enzyme activity: amount of released 4-methylumbelliferone: mineral medium; for Enzyme activity: amount of released 4-methylumbelliferone during 5 hours of incubation: vegetable juice medium
all fungi tested = experiment: Screening of a diverse selection of fungi for ability to degrade 11 substrates (summary); settings: mineral medium and vegetable juice medium
Experimental: A number of fungi representing different taxonomic groupings were screened for enzyme activity. The fungi were grown for in 24 well plates (Nunclon Multidish, Life Technologies A/S) (well volume 3.4 ml) containing 1.5 ml of agarized growth medium. After a growth period of 10 days at 25° C., 1.5 ml citrate-phosphat buffer (pH 5) were added to the wells and one of 11 enzyme substrates were then added to each well and incubated for 5 hours at 25° C. after which the fluorescence of each well was measured. For each fungus two wells were incubated with each enzyme substrate. All substrates were used in a final concentration of 10 μM. The substrate only and the organism plus the agarized medium were included as controls. […] The fungi subjected to the assaying procedure were all obtained from the culture collection of the Department of General Microbiology at the University of Copenhagen, Denmark.

[1] = tested on: Rhizomucor pusillus (AAS 300); experiment: Screening of fungi for enzyme activity with 4-methylumbelliferone-labelled substrates; settings: substrate 10 μM, 25° C., pH 5; for Enzyme activity: amount of released 4-methylumbelliferone: mineral medium; for Enzyme activity: amount of released 4-methylumbelliferone during 5 hours of incubation: vegetable juice medium
[2] = tested on: Ascobolus crenulatus (AAS 1); experiment: as above; settings: substrate 10 μM, 25° C., pH 5; for Enzyme activity: amount of released 4-methylumbelliferone: mineral medium; for Enzyme activity: amount of released 4-methylumbelliferone during 5 hours of incubation: vegetable juice medium
[3] = tested on: Cladosporium herbarum (AGM 8); experiment: as above; settings: substrate 10 μM, 25° C., pH 5; for Enzyme activity: amount of released 4-methylumbelliferone: mineral medium; for Enzyme activity: amount of released 4-methylumbelliferone during 5 hours of incubation: vegetable juice medium
[4] = tested on: Aureobasidium pullulans (QM 3092); experiment: as above; settings: substrate 10 μM, 25° C., pH 5; for Enzyme activity: amount of released 4-methylumbelliferone during 5 hours of incubation: Aureobasidium pulluians (QM 3092), vegetable juice medium; for Enzyme activity: amount of released 4-methylumbelliferone: Aureobasidium pullulans (QM 3092), mineral medium
[5] = tested on: Schizophyllum commune (AGM 25); experiment: as above; settings: substrate 10 μM, 25° C., pH 5; for Enzyme activity: amount of released 4-methylumbelliferone: mineral medium; for Enzyme activity: amount of released 4-methylumbelliferone during 5 hours of incubation: vegetable juice medium
[6] = tested on: Paecilomyces farinosus (AGM 5); experiment: as above; settings: substrate 10 μM, 25° C., pH 5; for Enzyme activity: amount of released 4-methylumbelliferone: mineral medium; for Enzyme activity: amount of released 4-methylumbelliferone during 5 hours of incubation: vegetable juice medium
[7] = tested on: Sodaria fimicola (AAS 17); experiment: as above; settings: substrate 10 μM, 25° C., pH 5; for Enzyme activity: amount of released 4-methylumbelliferone: mineral medium; for Enzyme activity: amount of released 4-methylumbelliferone during 5 hours of incubation: vegetable juice medium
[8] = tested on: Trametes versicolor (AGM 24); experiment: as above; settings: substrate 10 μM, 25° C., pH 5; for Enzyme activity: amount of released 4-methylumbelliferone: mineral medium; for Enzyme activity: amount of released 4-methylumbelliferone during 5 hours of incubation: vegetable juice medium
[9] = tested on: Aspergillus versicolor (IBT 13738); experiment: as above; settings: substrate 10 μM, 25° C., pH 5; for Enzyme activity: amount of released 4-methylumbelliferone: mineral medium; for Enzyme activity: amount of released 4-methylumbelliferone during 5 hours of incubation: vegetable juice medium
[10] = tested on: Penicillium solitum (IBT 13771); experiment: as above; settings: substrate 10 μM, 25° C., pH 5; for Enzyme activity: amount of released 4-methylumbelliferone: mineral medium; for Enzyme activity: amount of released 4-methylumbelliferone during 5 hours of incubation: vegetable juice medium
[11] = tested on: Mucor racemosus (AAS 310); experiment: as above; settings: substrate 10 μM, 25° C., pH 5; for Enzyme activity: amount of released 4-methylumbelliferone: mineral medium; for Enzyme activity: amount of released 4-methylumbelliferone during 5 hours of incubation: vegetable juice medium
[12] = tested on: Penicillium commune (IBT 13713); experiment: as above; settings: substrate 10 μM, 25° C., pH 5; for Enzyme activity: amount of released 4-methylumbelliferone: mineral medium; for Enzyme activity: amount of released 4-methylumbelliferone during 5 hours of incubation: vegetable juice medium
[13] = tested on: Aspergillus oryzae (AGM 11); experiment: as above; settings: substrate 10 μM, 25° C., pH 5; for Enzyme activity: amount of released 4-methylumbelliferone: mineral medium; for Enzyme activity: amount of released 4-methylumbelliferone during 5 hours of incubation: vegetable juice medium

SMILES	Enzyme activity: amount of released 4-methylumbelliferone (Eurotium sp. (AAS 36))	Enzyme activity: amount of released 4-methylumbelliferone during 5 hours of incubation (Eurotium sp. (AAS 36))	Enzyme activity: amount of released 4-methylumbelliferone [1]	Enzyme activity: amount of released 4-methylumbelliferone during 5 hours of incubation [1]	Enzyme activity: amount of released 4-methylumbelliferone [2]	Enzyme activity: amount of released 4-methylumbelliferone during 5 hours of incubation [2]	Enzyme activity: amount of released 4-methylumbelliferone [3]	Enzyme activity: amount of released 4-methylumbelliferone during 5 hours of incubation [3]	Enzyme activity: amount of released 4-methylumbelliferone during 5 hours of incubation [4]	Enzyme activity: amount of released 4-methylumbelliferone [4]	Enzyme activity: amount of released 4-methylumbelliferone [5]	Enzyme activity: amount of released 4-methylumbelliferone during 5 hours of incubation [5]	Enzyme activity: amount of released 4-methylumbelliferone [6]	Enzyme activity: amount of released 4-methylumbelliferone during 5 hours of incubation [6]	Enzyme activity: amount of released 4-methylumbelliferone [7]	Enzyme activity: amount of released 4-methylumbelliferone during 5 hours of incubation [7]	Enzyme activity: amount of released 4-methylumbelliferone [8]	Enzyme activity: amount of released 4-methylumbelliferone during 5 hours of incubation [8]	Enzyme activity: amount of released 4-methylumbelliferone [9]	Enzyme activity: amount of released 4-methylumbelliferone during 5 hours of incubation [9]	also measured
CC(=O)N[C@H]1[C@H](Oc2ccc3c(C)cc(=O)oc3c2)O[C@H](CO)[C@@H](O[C@@H]2O[C@H](CO)[C@@H](O[C@@H]3O[C@H](CO)[C@@H](O)[C@H](O)[C@H]3NC(C)=O)[C@H](O)[C@H]2NC(C)=O)[C@@H]1O [substrate 4, 4-methylumbelliferyl β-D-N,N′,N″triacetylchitotrioside]	** (1 ≦ ** 2)	** (1 ≦ ** 2)	*** (2 ≦ ***)	*** (2 ≦ ***)	** (1 ≦ ** 2)	** (1 ≦ ** 2)	* (0.4 ≦ * < 1)	* (0.4 ≦ * < 1)	*** (2 ≦ ***)	*** (2 ≦ ***)	** (1 ≦ ** 2)	*** (2 ≦ ***)	** (1 ≦ ** 2)	*** (2 ≦ ***)	** (1 ≦ ** 2)	*** (2 ≦ ***)	** (1 ≦ ** 2)	*** (2 ≦ ***)	* (0.4 ≦ * < 1)	*** (2 ≦ ***)	ability to degrade the substrate (all fungi tested): could be demonstrated in all fungi tested; Enzyme activity: amount of released 4-methylumbelliferone [10]: ** (1 ≦ ** 2); Enzyme activity: amount of released 4-methylumbelliferone during 5 hours of incubation [10]: *** (2 ≦ ***); Enzyme activity: amount of released 4-methylumbelliferone [11]: ** (1 ≦ ** 2); Enzyme activity: amount of released 4-methylumbelliferone during 5 hours of incubation [11]: *** (2 ≦ ***); Enzyme activity: amount of released 4-methylumbelliferone [12]: 0 µmol; Enzyme activity: amount of released 4-methylumbelliferone during 5 hours of incubation [12]: *** (2 ≦ ***); Enzyme activity: amount of released 4-methylumbelliferone [13]: ** (1 ≦ ** 2); Enzyme activity: amount of released 4-methylumbelliferone during 5 hours of incubation [13]: *** (2 ≦ ***)
Cc1cc(=O)oc2cc(O[C@H]3O[C@H](CO)[C@@H](O)[C@H](O)[C@H]3O)ccc12 [substrate 7, 4-methylumbelliferyl α-D-glucoside]	0 µmol	0 µmol	0 µmol	* (0.4 ≦ * < 1)	0 µmol	0 µmol	0 µmol	0 µmol	*** (2 ≦ ***)	*** (2 ≦ ***)	0 µmol	0 µmol	0 µmol	0 µmol	0 µmol	** (1 ≦ ** 2)	0 µmol	0 µmol	0 µmol	0 µmol	Enzyme activity: amount of released 4-methylumbelliferone [10]: 0 µmol; Enzyme activity: amount of released 4-methylumbelliferone during 5 hours of incubation [10]: 0 µmol; Enzyme activity: amount of released 4-methylumbelliferone [11]: 0 µmol; Enzyme activity: amount of released 4-methylumbelliferone during 5 hours of incubation [11]: 0 µmol; Enzyme activity: amount of released 4-methylumbelliferone [12]: 0 µmol; Enzyme activity: amount of released 4-methylumbelliferone during 5 hours of incubation [12]: 0 µmol; Enzyme activity: amount of released 4-methylumbelliferone [13]: 0 µmol; Enzyme activity: amount of released 4-methylumbelliferone during 5 hours of incubation [13]: 0 µmol
Cc1cc(=O)oc2cc(O[C@@H]3O[C@H](CO)[C@@H](O[C@@H]4O[C@H](CO)[C@H](O)[C@H](O)[C@H]4O)[C@H](O)[C@H]3O)ccc12 [substrate 8, 4-methylumbelliferyl β-D-lactoside]	0 µmol	0 µmol	0 µmol	* (0.4 ≦ * < 1)	0 µmol	0 µmol	0 µmol	0 µmol	0 µmol	0 µmol	0 µmol	** (1 ≦ ** 2)	0 µmol	0 µmol	0 µmol	** (1 ≦ ** 2)	0 µmol	0 µmol	0 µmol	0 µmol	Enzyme activity: amount of released 4-methylumbelliferone [10]: 0 µmol; Enzyme activity: amount of released 4-methylumbelliferone during 5 hours of incubation [10]: 0 µmol; Enzyme activity: amount of released 4-methylumbelliferone [11]: 0 µmol; Enzyme activity: amount of released 4-methylumbelliferone during 5 hours of incubation [11]: 0 µmol; Enzyme activity: amount of released 4-methylumbelliferone [12]: 0 µmol; Enzyme activity: amount of released 4-methylumbelliferone during 5 hours of incubation [12]: 0 µmol; Enzyme activity: amount of released 4-methylumbelliferone [13]: 0 µmol; Enzyme activity: amount of released 4-methylumbelliferone during 5 hours of incubation [13]: * (0.4 ≦ * < 1)

Source: US6372446B1, “Method of selectively determining a fungal biomass” (Mycometer ApS, priority 1997, dated 2002)
